{"source": "patent US11795510B2", "about": "“Identification of epigenomic reprogramming in cancer and uses thereof” (The Johns Hopkins University, priority 2016, dated 2023)", "key": {"[1]": {"tested_on": "local-regional PDAC samples", "assay": "3-D suspension tumorsphere assay, local-regional PDACs", "assay_type": "cell-based, human", "procedure": "3-D matrigel assays were adapted from Cheung et al. (Control of alveolar differentiation by the lineage transcription factors GATA6 and HOPX inhibits lung adenocarcinoma metastasis. Cancer Cell 23, 725-38 (2013)). Briefly, 2-D cultures were trypsinized into single cells, 4,000cells/mL were suspended and thoroughly mixed in ice-cold DMEM containing 5% matrigel (BD systems) and 2% FBS (+/−DMSO/6AN as needed), 500 ul plated in quadruplicate into 24 well ultra-low attachment plates, and incubated for at least 7 days to allow tumor growth. Well-formed tumors were then counted and representative photographs taken with an EVOS instrument. 3-D suspension tumorsphere assays were performed with 20,000 starting cells/well in ultra-low attachment 6 well plates as described, and tumors counted/photographed after at least 7 days of tumor growth."}, "[2]": {"tested_on": "distant metastatic subclones", "assay": "Organotypic tumor forming assay (3D organotypic stromal cultures)", "assay_type": "cell-based, human", "procedure": "Organotypic tumor forming assays were adapted from Ridky et al. (P.A. Invasive three-dimensional organotypic neoplasia from multiple normal human epithelia. Nat Med 16, 1450-5 (2010)) and Andl et al. (Epidermal growth factor receptor mediates increased cell proliferation, migration, and aggregation in esophageal keratinocytes in vitro and in vivo. J Biol Chem 278, 1824-30 (2003)). Briefly, 6 well permeable transwell plates (Costar 3414) were overlayed with 1 mL type 1 collagen containing 10×DMEM (acellular layer). Human dermal fibroblasts (ATCC) were suspended (12×10^6 cells/mL) in a mixture of ice cold 10×DMEM, 10% FBS, 52.5% collagen, and 17.5% matrigel (cellular layer), thoroughly mixed, and 2 mL/well plated over the acellular layer. The mixture was allowed to partially solidify for approximately 15 minutes at 37° C., followed by triplicate injection of 1×10^6 PDAC (suspended in 20 ul DMEM) cells into the cellular layer. Cells were incubated for 24 hours in fibroblast growth media above and below the inserts to initiate contraction of the discs. […] Discs were harvested, fixed overnight in 10% formalin, […], and stained with H&E. Tumors were photographed and measured with an Olympus BX53 microscope using cellSens Standard software."}, "[3]": {"target": "T1, 6-phosphogluconate dehydrogenase (PGD) (Homo sapiens, UniProt P52209)", "T1 construct": "endogenous in cells; host or cells: low-passage rapid-autopsy PDAC cell lines (e.g. A38Lg, A38Per, A13 subclones)", "T1 sequence (P52209 1-483)": "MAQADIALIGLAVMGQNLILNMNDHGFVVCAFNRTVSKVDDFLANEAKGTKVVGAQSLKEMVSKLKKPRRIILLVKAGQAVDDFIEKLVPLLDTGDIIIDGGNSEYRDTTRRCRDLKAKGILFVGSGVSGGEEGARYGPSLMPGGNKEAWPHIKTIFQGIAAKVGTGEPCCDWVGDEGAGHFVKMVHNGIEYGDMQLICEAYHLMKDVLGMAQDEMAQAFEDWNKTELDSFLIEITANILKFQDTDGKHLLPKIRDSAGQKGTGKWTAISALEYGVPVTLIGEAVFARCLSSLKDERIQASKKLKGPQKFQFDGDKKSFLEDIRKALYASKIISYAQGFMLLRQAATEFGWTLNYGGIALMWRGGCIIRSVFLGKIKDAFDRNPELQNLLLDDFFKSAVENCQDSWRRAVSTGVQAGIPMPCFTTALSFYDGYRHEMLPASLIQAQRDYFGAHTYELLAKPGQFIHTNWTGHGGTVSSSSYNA", "assay": "Steady state LC-HRMS metabolite profiling (glycolytic/PPP metabolites)", "assay_type": "cell-based", "procedure": "Tissue samples and cell lines were previously collected from PDAC patients by rapid autopsy, sequenced-validated, and monitored for mycoplasma as previously described. Low passage (2-17) rapid autopsy cell lines were cultured at 37° C. in DMEM with 10% fetal bovine serum (FBS, Gibco). For MTT assays, 15,000 cells/well were plated into 96 well plates in triplicate, treated 12 hours later, and assayed after 24 hr (glucose responses) or 6 days (chemotherapy) with CellTiter96 (Promega). For glucose response assays, nutrient-deplete DMEM (no glucose, glutamine, pyruvate, or serum) was used with addition of glucose as indicated. […] Cells were then washed with PBS, trypsinized, and viable cells counted with a hemocytometer. Glucose uptake and lactate secretion were measured with a YSI 7100 Bioanalyzer as described in the supplementary methods. […]\nLC-HRMS Metabolite Profiling. LC-HRMS samples were prepared and analyzed as described in Liu et al. (Development and quantitative evaluation of a high-resolution metabolomics technology. Anal Chem 86, 2175-84 (2014)). […] Additional replicates were also included and counted at the end of the experiment for normalization. […] Pellets were reconstituted into a volume normalized to protein content (15 uL of 1:1 acetonitrile:methanol and 15 uL of water was used per 1 mg protein) and analyzed by LC-QE-MS. […]"}}, "note": "“Also recorded” adds a separate entry of the source."}
{"molecule": "NC(=O)c1ccc(N)nc1", "note": "[6AN, 6-aminonicotinamide]", "values": [{"measurement": "tumor formation in 3-D suspension tumorsphere assays", "setting": "[1]", "value": "minimal effects; also recorded: did not interfere"}, {"measurement": "tumor formation after injection into 3D organotypic stromal cultures", "setting": "[2]", "value": "selectively and strongly blocked tumor formation; also recorded: blocked"}, {"measurement": "steady state levels of glucose and metabolites directly upstream of the PGD reaction (6PG, G1,5L)", "setting": "[3]", "value": "dramatically elevated; also recorded: greatly increased"}, {"measurement": "steady state levels of metabolites downstream of the PGD reaction", "setting": "[3]", "value": "corresponding reductions"}]}
